{
  "source": "patent US20050187194A1",
  "about": "“Preventive agents for diabetes mellitus” (SANKYO COMPANY LIMITED, priority 2002, published 2005)",
  "key": {"GK rats [1]": {"tested_on": "GK rats", "test": "Improving effects on impaired glucose tolerance: oral glucose load in fasted GK rats, AUC of blood glucose", "format": "in vivo, rat", "conditions": "2 g/kg glucose 1 hour later", "protocol": "6-week-old GK rats of (Charles River Japan, Inc.) which show IGT symptoms, but not diabetes mellitus, were fasted overnight. Compound A was orally administered at dosages of 10, 20 or 40 mg/kg. Two gram per kilogram of 50% (w/w) glucose solution was orally administered 1 hour after the administration of Compound A. The rats in the control group were administered orally 2 g/kg of 50% (w/w) glucose solution only.\nThe blood was collected from the tail vein just before and 0.5, 1, 2 and 4 hours after the glucose administration. Blood glucose level was determined by electric potential measurement method based on a glucose oxidase immobilized electrode using Glucoloader GXT (A&T Corp.).\nOn the abscissas, the time after the administration of Compound A was plotted, and on the ordinate, the blood glucose level of each individual was plotted. Each point was drawn with a straight line. The areas under the curves (AUCs) for the blood glucose levels of the graph obtained were calculated.\nUsing the areas under the curves (AUCs) for the blood glucose levels, the average value and standard error of each group were calculated. […]\nThe blood was collected from the tail vein just before and 0.5, 1 and 2 hours after the glucose administration. Blood glucose level was determined by electric potential measurement method based on a glucose oxidase immobilized electrode using Glucoloader GXT (A&T Corp.). […]"}, "GK rats [2]": {"tested_on": "GK rats", "test": "Preventative effects on diabetes mellitus in GK rats prior to the crisis of diabetes (drug mixed in food, 8 weeks)", "format": "in vivo, rat", "from_the_text": "6-week-old GK rats (Charles River Japan, Inc.) which were prior to the crisis of diabetes mellitus, were used. Compound A was mixed with food powder for the rat (F2, Funabashi Farm Co.,) at concentrations of 0.04%, 0.2% and 1.0% (w/w) and was orally administered to 4-6 rats per group for 8 weeks ad libitum (the mean amount of food intake per rat: 17.3 g/day).\nThe rats in the control group were fed with only food powder.\nBlood from each rat was collected from the tail vein every 2 weeks, and the blood glucose level, plasma lactate level and plasma triglyceride level were determined. Blood glucose level was determined by electric potential measurement method based on glucose oxidase immobilized electrode using Glucoloader GXT (A&T Corp.). Plasma lactate level was determined using a spectrophotometric method with Lactate Reagent (Sigma-Aldrich Japan K. K.), and plasma triglyceride level was determined using a spectrophotometric method with Triglyceride E Test Wako (Wako Pure Chemical Industries, Ltd.). When the blood was collected after the drug administration period and the drug withdrawal period for 2 weeks, glycosylated hemoglobin ratio was also determined with DCA-2000 (Bayer Medical Co., Ltd.)."}, "patients": {"tested_on": "patients", "conditions": "patients treated with metformin; N Engl J Med 346, 393-403 (2002); cited from earlier work"}},
  "data": [
    {"smiles": "CCOC(=O)[C@H](C)NP(=O)(N[C@@H](C)C(=O)OCC)c1ccc(-c2nc(N)sc2CC(C)C)o1", "note": "[Compound A, 2-amino-5-isobutyl-4-{2-[5-(N,N′-bis((S)-1-ethoxycarbonyl)ethyl)phosphonamido]furanyl}thiazole]", "values": [
      {"measurement": "AUCs of the blood glucose levels", "setting": "GK rats [1]; GK rats fasted overnight, 10, 20 or 40 mg/kg oral, blood to 4 hours, FIG. 5", "value": "decreased by the treatment of Compound A in a dose-dependent manner"},
      {"measurement": "increase in the blood glucose level", "setting": "GK rats [2]; 6-week-old GK rats, 0.04%, 0.2% and 1.0% (w/w) in food, oral, 8 weeks, FIG. 1", "value": "inhibited in a dose-dependent manner"},
      {"measurement": "glycosylated hemoglobin ratio", "setting": "GK rats [2]; GK rats, after 8 weeks of 0.04%, 0.2% and 1.0% (w/w) in food, FIG. 2", "value": "decreased in a dose-dependent manner"},
      {"measurement": "gastrointestinal symptoms such as diarrhea", "setting": "GK rats [2]; GK rats, all the groups examined", "value": "no animal suffered gastrointestinal symptoms such as diarrhea"},
      {"measurement": "blood glucose level after the drug administration period was terminated", "setting": "GK rats [2]; GK rats, drug withdrawal period 2 weeks, FIG. 1", "value": "attained the same maximum level as that in the control group"},
      {"measurement": "glycosylated hemoglobin ratio after withdrawal of administration", "setting": "GK rats [2]; GK rats, drug withdrawal period 2 weeks, FIG. 2", "value": "increased to the same level as that in the control group"},
      {"measurement": "plasma triglyceride level", "setting": "GK rats [2]; GK rats, during the administration period, FIG. 3", "value": "not increased as much as those in the control rats or was prevented from increase"},
      {"measurement": "plasma lactate level", "setting": "GK rats [2]; GK rats, during the administration period, versus control group, FIG. 4", "value": "not significantly different from the control group"}
    ]},
    {"smiles": "CN(C)C(=N)N=C(N)N", "note": "[metformin]", "values": [
      {"measurement": "patients with gastrointestinal symptoms such as diarrhea", "setting": "patients", "value": "approximately 80%"}
    ]},
    {"smiles": "CCOc1cc2ncnc(Nc3cccc(-c4csc(C)n4)c3)c2cc1OCC", "note": "[Compound B, (6,7-diethoxy-quinazolin-4-yl)-[3-(2-methyl-thiazol-4-yl)phenyl]amine]", "values": [
      {"measurement": "AUCs of the blood glucose levels", "setting": "GK rats [1]; GK rats fasted overnight, 100 mg/kg or 300 mg/kg oral, blood to 2 hours, FIG. 6", "value": "decreased by the treatment of Compound B in a dose-dependent manner"}
    ]}
  ]
}
